From patent US5707615A, “Method of treating HIV infections with anti-viral formulations” (Merrell Pharmaceuticals Inc., priority 1997, dated 1998)

What was measured:
GB8 virus in JM cells = experiment: Virus infection of JM cells with GB8 in the presence of test compounds: syncytia and P24 (Example II); details: Table II; for SYNCYTIA % / P24 %: % of control; for SYNCYTIA %: 2880 min; for P24 %: 5760 min
Method: Virus infection of JM cells was carried out in the presence of different concentrations of test compounds. JM cells (1×10^5) and 50-100 syncytial forming units of virus (GB8) were added to duplicate wells of a tissue culture plate containing 1 mL volumes of growth medium with or without drug. The plate was incubated for 2 days at 37° C. and then scored for the presence of syncytia. At the same time the cells were washed and the growth medium replaced. After a further two days incubation, the cell free supernatant fluids were harvested and assayed for levels of P24 viral core antigen using the Coulter™ HIV Antigen assay.

MT4 cells = experiment: Toxicity to MT4 cells (TD50, Table IV, MTT); assay type: cell-based; details: MT4 cells, 7 days, MTT
Method: (§1) Various oligomers were dissolved in RPMI and were then assayed for anti-HIV activity by making doubling dilutions of the solutions across a 96 well microtitre plate. To each well were then added 5×10^4 cells and 100 TCID50 of virus and the plates incubated at 37° C. for 7 days. MTT was added to each well and the plates incubated for a further 2 hours. The blue formazan crystals were dissolved using acidic isopropanol, and the absorbance measured at 540 nm.

HIV strain RF = experiment: Ability to prevent virus-induced cell death using MT4 cells and strain RF (Example III); assay type: cell-based; details: MT4 cells, 7 days, MTT, 10080 min
Method: as §1

HIV-I (GB8) = experiment: Pretreatment of JM cells and block of HIV-I (GB8) infection (Example IV); details: pretreated overnight at 20 μg/mL
Method: JM cells were pretreated overnight at 37° C. with different compounds at 20 μg/mL or left untreated. The cells were washed 3 times in RPMI medium and then infected with HIV-I (GB8) for 2 hours at room temperature. The cells were again washed 3 times in RPMI medium and resuspended in fresh medium prior to being distributed into duplicate wells and incubated at 37° C. After 2 days syncytia were scored and the cell free supernatant fluid harvested and assayed for P24 viral core antigen using the Coulter™ HIV antigen assay.

HIV-I, GB8 = experiment: Ability to prevent syncytia formation and expression of P24 viral core antigen using JM cells and GB8 virus strain (Example I); assay type: cell-based; details: for P24 % CONTROL: 4320 min; for SYNCYTIA: after 3 days
Method: The virus was first incubated with an oligomer for 15 minutes and then the cells were added. After 2 hours adsorption, the virus innoculum was removed and the cells were washed three times to remove traces of input virus. Antiviral activity was determined after 3 days incubation by plotting the mean number of syncytia found in quadruple cultures against log10 concentration of anionic polymer or of other test compounds. The potency of an oligomer was also measured by assaying viral core antigen (P24 test-Abbott) in the supernatant fluid. Heparin, dextran sulfate, rs CD4, ATZ and/or ddC data, when included in any of the following Tables, are provided as positive controls.

HIV = details: cited from earlier work
influenza = details: cited from earlier work

Q: For “poly{imino[2,2'-disulfo(1,1'-biphenyl)-4,4'-diyl]iminocarbonyl}, alpha-{[(4-methylphenyl)amino]carbonyl}-omega[(4-methylphenyl)amino]- [Example 1B]”, which “SYNCYTIA (2 DAYS) MEAN” value (GB8 virus in JM cells; 0.01 μg/mL) is on record?
A: 47

Q: What about the SYNCYTIA % (GB8 virus in JM cells; 0.01 μg/mL) of the same compound?
A: 112%

Q: What about the P24 (GB8 virus in JM cells; 0.03 μg/mL) of the same compound?
A: 4.1 × 10^5 units/mL

Q: And the “SYNCYTIA (2 DAYS) MEAN” value (GB8 virus in JM cells; 0.03 μg/mL)?
A: 42

Q: And the SYNCYTIA % (GB8 virus in JM cells; 0.03 μg/mL)?
A: 100%

Q: What about the P24 % (GB8 virus in JM cells; 0.03 μg/mL) of the same compound?
A: 100%

Q: And the P24 (GB8 virus in JM cells; 0.1 μg/mL)?
A: 4.4 × 10^5 units/mL

Q: And the “SYNCYTIA (2 DAYS) MEAN” value (GB8 virus in JM cells; 0.1 μg/mL)?
A: 25

Q: What about the SYNCYTIA % (GB8 virus in JM cells; 0.1 μg/mL) of the same compound?
A: 58%

Q: And the P24 % (GB8 virus in JM cells; 0.1 μg/mL)?
A: 100%

Q: What about the P24 (GB8 virus in JM cells; 0.3 μg/mL) of the same compound?
A: 3.8 × 10^4 units/mL

Q: And the “SYNCYTIA (2 DAYS) MEAN” value (GB8 virus in JM cells; 0.3 μg/mL)?
A: 1

Q: And the SYNCYTIA % (GB8 virus in JM cells; 0.3 μg/mL)?
A: 2%

Q: What about the P24 % (GB8 virus in JM cells; 0.3 μg/mL) of the same compound?
A: 11%

Q: And the P24 (GB8 virus in JM cells; 1 μg/mL)?
A: 1.6 × 10^3 units/mL

Q: What about the “SYNCYTIA (2 DAYS) MEAN” value (GB8 virus in JM cells; 1 μg/mL) of the same compound?
A: 0

Q: What about the SYNCYTIA % (GB8 virus in JM cells; 1 μg/mL) of the same compound?
A: 0%

Q: And the P24 % (GB8 virus in JM cells; 1 μg/mL)?
A: 0.4%

Q: What about the “SYNCYTIA (2 DAYS) MEAN” value (GB8 virus in JM cells; 3 μg/mL) of the same compound?
A: 0

Q: And the SYNCYTIA % (GB8 virus in JM cells; 3 μg/mL)?
A: 0%

Q: What about the “SYNCYTIA (2 DAYS) MEAN” value (GB8 virus in JM cells; 10 μg/mL) of the same compound?
A: 0

Q: And the SYNCYTIA % (GB8 virus in JM cells; 10 μg/mL)?
A: 0%

Q: What about the TD50 (MT4 cells) of the same compound?
A: > 100 µg/mL

Q: And the ED50 (HIV strain RF)?
A: 2.2 µg/mL

Q: What about the P24 (HIV-I (GB8)) of the same compound?
A: 2790 pg/mL

Q: What about the “MEAN SYNCYTIA” value (HIV-I (GB8); 2 days) of the same compound?
A: 52

Q: What about the P24 % (HIV-I (GB8); % of control, 2880 min) of the same compound?
A: 10%

Q: And the SYNCYTIA % (HIV-I (GB8); % of control, 2880 min)?
A: 44%

Q: And the P24 (HIV-I, GB8; 0.6 μg/mL)?
A: 32820 pg/mL

Q: And the “P24 % CONTROL” value (HIV-I, GB8; 0.6 μg/mL)?
A: 0.1%

Q: And the P24 (HIV-I, GB8; 1.25 μg/mL)?
A: 35890 pg/mL

Q: And the “P24 % CONTROL” value (HIV-I, GB8; 1.25 μg/mL)?
A: < 0.1%

Q: What about the P24 (HIV-I, GB8; 2.5 μg/mL) of the same compound?
A: 365 pg/mL

Q: And the “P24 % CONTROL” value (HIV-I, GB8; 2.5 μg/mL)?
A: < 0.1%

Q: And the SYNCYTIA (HIV-I, GB8; 2.5 μg/mL)?
A: 0

Q: And the P24 (HIV-I, GB8; 5.0 μg/mL)?
A: 465 pg/mL

Q: What about the “P24 % CONTROL” value (HIV-I, GB8; 5.0 μg/mL) of the same compound?
A: < 0.1%

Q: And the SYNCYTIA (HIV-I, GB8; 5.0 μg/mL)?
A: 0

Q: With `CCC(O)[C@H](N)C(=O)O` (stereo partly drawn) [β-hydroxy-norvaline] as the compound, how does the “expression of HIV glycoproteins and formation of syncytia” value (HIV) read?
A: inhibit expression of HIV glycoproteins and block the formation of syncytia

Q: What does the source list for `O=CC[C@@H](O)[C@H](O)[C@H](O)CO` [2-deoxy-D-glucose]?
A: viral protein glycosylation (influenza): inhibited viral protein glycosylation; expression of HIV glycoproteins and formation of syncytia (HIV): inhibit expression of HIV glycoproteins and block the formation of syncytia
